System: diarrhea-predominant IBS subjects
Assay: Study S241.3.009: weekly diary questions on adequate relief
Type: in vivo, human
Conditions: ITT, 2 mg TID; for Number of months a subject was a responder: Three months (IBS symptoms) / Number of months a subject was a responder: Two months (Abdominal pain/discomfort) / Number of months a subject was a responder: Two months (Abnormal bowel habits) / Number of months a subject was a responder: Two months (IBS symptoms) / Number of months a subject was a responder: Zero months (Abdominal pain/discomfort) / Number of months a subject was a responder: Zero months (Abnormal bowel habits) / Number of months a subject was a responder: Zero months (IBS symptoms) / Number of months a subject was a responder: One month (Abdominal pain/discomfort) / Number of months a subject was a responder: One month (Abnormal bowel habits) / Number of months a subject was a responder: One month (IBS symptoms) / Number of months a subject was a responder: Three months (Abdominal pain/discomfort) / Number of months a subject was a responder: Three months (Abnormal bowel habits): Months 1 to 3, monthly LOCF; for Overall responder rate, adequate relief of IBS symptoms / Overall responder rate, adequate relief of abdominal pain/discomfort / Overall responder rate, adequate relief of abnormal bowel habits: 26-week treatment period, observed case
Experimental: Study S241.3.009 was a Phase III, a double-blind, placebo-controlled, randomized, multinational study to investigate the safety and efficacy of 2 mg TID of cilansetron over 26 weeks in diarrhea-predominant IBS subjects. The study was conducted in 146 multinational study centers. A total of 1307 subjects consented to participate, and 806 subjects were randomized. A total of 792 subjects were analyzed for efficacy and 799 subjects were analyzed for safety. Diagnosis and main criteria for inclusion were IBS subjects satisfying the Rome I criteria (1992); the diarrhea-predominant sub-population of the Rome II criteria; and a minimum abdominal pain/discomfort, stool frequency and consistency determined during the run-in period. Subjects were treated with cilansetron 2 mg tablets given orally TID or matching placebo tablets given orally TID for 26 weeks.
The primary efficacy parameter was the overall response rate for IBS symptoms, based on the weekly question concerning adequate relief of IBS symptoms (abdominal pain/discomfort, abnormal bowel habits) over the 26 weeks period. A responder was a subject who responded “yes” at least 50% of the time during his/her treatment period, with minimum treatment duration of four weeks. The two main secondary efficacy parameters were overall responder rate based on the weekly question on adequate relief of abdominal pain/discomfort and abnormal bowel habits during the 26-week treatment period. The onset of action of cilansetron was also examined using daily diary data (stool frequency, and ratings of urgency and severity) during the initial 8 weeks of trial participation. An additional key secondary efficacy parameter was the number of months (one month equals four weeks) up to six months (24-weeks) that a subject was a responder for IBS symptoms, where a responder was defined as a subject who answered the weekly question with “yes” at least twice for that month. The responder rate for the weekly diary questions on adequate relief at each month and all months, the adequate relief rate, the number of subjects with adequate relief by week, daily diary questions, IBS-QOL scores, and the interruption of activities were also assessed. Safety was evaluated by physical examination, ECG, vital signs, laboratory evaluations, concomitant medications, and AEs.
Studies S24 1.3.OO6, S24 1.3.0 1 1, and S24 1.3.009 used the following efficacy measurements: • The subjects answered the following three questions with “yes” or “no” using a phone diary at the end of each week: • a) During the last week, did you experience adequate relief of your IBS symptoms, such as abdominal pain, abdominal discomfort, abnormal bowel habits? • b) During the last week, did you experience adequate relief of your abdominal pain and/or discomfort? • c) During the last week, did you experience adequate relief of your abnormal bowel habits? • The subjects rated the following symptoms using the phone diary at the end of each day: • abdominal pain/discomfort (five-point scale); • stool consistency (seven-point Bristol Stool Scale); • stool frequency (number of bowel movements each day); • urgency (five-point scale); • straining (yes or no); • feeling of incomplete defecation (yes or no); • bloating or feeling of abdominal distension (five-point scale). • In Studies S241 A006 and S241.3.009, subjects completed the IBS-QOL Survey at Baseline (Day 1) and at the end of treatment. In Study S24 1.3.0 1 1, subjects completed the IBS-QOL Survey at Baseline (Day 1), at the end of the three-month treatment period, and at the end of rerandomized treatment.
In all three pivotal efficacy studies, the primary and main secondary efficacy parameters were based on the weekly diary questions on adequate relief and included the following: • 1. Number of months (one month equals four weeks) that a subject was a responder for the weekly diary questions on adequate relief. […]

[1] = Baseline severity of IBS: non-severe
[2] = Baseline severity of IBS: severe
[3] = Duration of IBS: >24 months to ≦48 months, monthly LOCF imputation

## Cc1nccn1C[C@H]1CCc2c(c3cccc4c3n2CCC4)C1=O [Cilansetron, (R)-(−)-4,5,6,8,9,10-hexahydro-10-[(2-methyl-1H-imidazol-1-yl)methyl]-11H-pyrido-[3,2,1-jk]-carbazol-11-one]
Baseline BMI: <30 kg/m^2
  Number of months a subject was a responder: Three months (IBS symptoms): 131 (40) n (%)
  Number of months a subject was a responder: Two months (Abdominal pain/discomfort): 58 (18) n (%)
  Number of months a subject was a responder: Two months (Abnormal bowel habits): 69 (21) n (%)
  Number of months a subject was a responder: Two months (IBS symptoms): 64 (19) n (%)
  Number of months a subject was a responder: Zero months (Abdominal pain/discomfort): 82 (25) n (%)
  Number of months a subject was a responder: Zero months (Abnormal bowel habits): 78 (24) n (%)
  Number of months a subject was a responder: Zero months (IBS symptoms): 86 (26) n (%)
Baseline BMI: ≧30 kg/m^2
  Overall responder rate, adequate relief of IBS symptoms: 27 (42) n (%)
  Overall responder rate, adequate relief of abdominal pain/discomfort: 32 (49) n (%)
  Overall responder rate, adequate relief of abnormal bowel habits: 33 (51) n (%)
  Number of months a subject was a responder: One month (Abdominal pain/discomfort): 10 (15) n (%)
  Number of months a subject was a responder: One month (Abnormal bowel habits): 10 (15) n (%)
  Number of months a subject was a responder: One month (IBS symptoms): 6 (9) n (%)
  Number of months a subject was a responder: Three months (Abdominal pain/discomfort): 20 (31) n (%)
  Number of months a subject was a responder: Three months (Abnormal bowel habits): 21 (32) n (%)
  Number of months a subject was a responder: Three months (IBS symptoms): 19 (29) n (%)
  Number of months a subject was a responder: Two months (Abdominal pain/discomfort): 12 (18) n (%)
  Number of months a subject was a responder: Two months (Abnormal bowel habits): 14 (22) n (%)
  Number of months a subject was a responder: Two months (IBS symptoms): 16 (25) n (%)
  Number of months a subject was a responder: Zero months (Abdominal pain/discomfort): 23 (35) n (%)
  Number of months a subject was a responder: Zero months (Abnormal bowel habits): 20 (31) n (%)
  Number of months a subject was a responder: Zero months (IBS symptoms): 24 (37) n (%)
[1]
  Overall responder rate, adequate relief of IBS symptoms: 149 (61) n (%)
  Overall responder rate, adequate relief of abdominal pain/discomfort: 150 (61) n (%)
  Overall responder rate, adequate relief of abnormal bowel habits: 161 (65) n (%)
  Number of months a subject was a responder: One month (Abdominal pain/discomfort): 42 (17) n (%)
  Number of months a subject was a responder: One month (Abnormal bowel habits): 31 (13) n (%)
  Number of months a subject was a responder: One month (IBS symptoms): 37 (15) n (%)
  Number of months a subject was a responder: Three months (Abdominal pain/discomfort): 102 (41) n (%)
  Number of months a subject was a responder: Three months (Abnormal bowel habits): 104 (42) n (%)
  Number of months a subject was a responder: Three months (IBS symptoms): 95 (39) n (%)
  Number of months a subject was a responder: Two months (Abdominal pain/discomfort): 41 (17) n (%)
  Number of months a subject was a responder: Two months (Abnormal bowel habits): 54 (22) n (%)
  Number of months a subject was a responder: Two months (IBS symptoms): 51 (21) n (%)
  Number of months a subject was a responder: Zero months (Abdominal pain/discomfort): 61 (25) n (%)
  Number of months a subject was a responder: Zero months (Abnormal bowel habits): 57 (23) n (%)
  Number of months a subject was a responder: Zero months (IBS symptoms): 63 (26) n (%)
[2]
  Overall responder rate, adequate relief of IBS symptoms: 84 (57) n (%)
  Overall responder rate, adequate relief of abdominal pain/discomfort: 88 (59) n (%)
  Overall responder rate, adequate relief of abnormal bowel habits: 91 (61) n (%)
  Number of months a subject was a responder: One month (Abdominal pain/discomfort): 19 (13) n (%)
  Number of months a subject was a responder: One month (Abnormal bowel habits): 18 (12) n (%)
  Number of months a subject was a responder: One month (IBS symptoms): 18 (12) n (%)
  Number of months a subject was a responder: Three months (Abdominal pain/discomfort): 56 (38) n (%)
  Number of months a subject was a responder: Three months (Abnormal bowel habits): 60 (41) n (%)
  Number of months a subject was a responder: Three months (IBS symptoms): 54 (36) n (%)
  Number of months a subject was a responder: Two months (Abdominal pain/discomfort): 29 (20) n (%)
  Number of months a subject was a responder: Two months (Abnormal bowel habits): 29 (20) n (%)
  Number of months a subject was a responder: Two months (IBS symptoms): 29 (20) n (%)
  Number of months a subject was a responder: Zero months (Abdominal pain/discomfort): 44 (30) n (%)
  Number of months a subject was a responder: Zero months (Abnormal bowel habits): 41 (28) n (%)
  Number of months a subject was a responder: Zero months (IBS symptoms): 47 (32) n (%)
[3]
  Number of months a subject was a responder during Months 1 to 3: Abdominal pain/discomfort, One month: 14 (15) n (%)
  Number of months a subject was a responder during Months 1 to 3: Abdominal pain/discomfort, Three months: 37 (39) n (%)
  Number of months a subject was a responder during Months 1 to 3: Abdominal pain/discomfort, Two months: 19 (20) n (%)
  Number of months a subject was a responder during Months 1 to 3: Abdominal pain/discomfort, Zero months: 26 (27) n (%)
  Number of months a subject was a responder during Months 1 to 3: Abnormal bowel habits, One month: 11 (11) n (%)
  Number of months a subject was a responder during Months 1 to 3: Abnormal bowel habits, Three months: 36 (38) n (%)
  Number of months a subject was a responder during Months 1 to 3: Abnormal bowel habits, Two months: 25 (26) n (%)
  Number of months a subject was a responder during Months 1 to 3: Abnormal bowel habits, Zero months: 24 (25) n (%)

From patent publication US20090176817A1, “Method of Treatment of Diarrhea-Predominant Irritable Bowel Syndrome in a Subject” (priority 2005, published 2009)
